Structures can show the parent of a compound that is named as a salt.
Experiments:
[1] = molecular target: T1, Recombinant (1-346) HPK1 (h) (Homo sapiens, UniProt Q92918); test: HPK1 Human STE Kinase Enzymatic Radiometric Assay; type: biochemical; details: read-out: HPK1 IC50 nM Range*
T1 construct: Recombinant (1-346) HPK1 (h) is incubated with 8 mM MOPS pH 7.0
T1 sequence (Q92918 1-346): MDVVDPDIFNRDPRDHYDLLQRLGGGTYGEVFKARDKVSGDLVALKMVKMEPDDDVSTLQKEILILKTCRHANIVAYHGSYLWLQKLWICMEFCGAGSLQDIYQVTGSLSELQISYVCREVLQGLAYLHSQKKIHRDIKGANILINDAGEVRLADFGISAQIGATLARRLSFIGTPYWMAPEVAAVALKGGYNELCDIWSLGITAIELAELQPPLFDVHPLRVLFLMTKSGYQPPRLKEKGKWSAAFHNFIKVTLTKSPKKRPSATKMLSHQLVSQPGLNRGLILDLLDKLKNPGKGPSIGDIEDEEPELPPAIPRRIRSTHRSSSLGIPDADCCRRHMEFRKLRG
Method: A stock solution of 10 mM of test compound is prepared in DMSO. The compound plate was prepared by 3-fold and 9-point serial dilutions. […] The reaction is initiated by The addition of the Mg/ATP mix. After incubation for 40 minutes at RT, the reaction is stopped by the addition of phosphoric acid to a concentration of 0.5%.

Lck (h) = Lck (h) (Homo sapiens, UniProt P06239); test: Lck Human  Kinase Enzymatic Radiometric Assay; type: biochemical; details: read-out: Lck IC50 nM Range*
Lck (h), sequence (P06239 whole entry): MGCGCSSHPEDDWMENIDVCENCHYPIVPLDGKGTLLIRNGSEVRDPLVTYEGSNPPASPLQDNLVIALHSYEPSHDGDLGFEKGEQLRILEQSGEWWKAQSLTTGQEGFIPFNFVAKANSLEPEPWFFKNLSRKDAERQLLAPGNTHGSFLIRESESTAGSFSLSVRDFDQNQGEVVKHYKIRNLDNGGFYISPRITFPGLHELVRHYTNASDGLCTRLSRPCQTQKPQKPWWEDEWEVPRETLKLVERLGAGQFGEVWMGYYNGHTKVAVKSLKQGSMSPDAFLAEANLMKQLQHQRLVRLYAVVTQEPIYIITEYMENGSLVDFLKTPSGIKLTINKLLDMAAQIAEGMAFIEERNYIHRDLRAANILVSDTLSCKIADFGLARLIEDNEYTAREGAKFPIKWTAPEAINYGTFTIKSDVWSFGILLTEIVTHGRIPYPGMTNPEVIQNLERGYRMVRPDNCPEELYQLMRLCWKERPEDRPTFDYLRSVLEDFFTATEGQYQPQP
Outline: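 Substrate 33P-incorporation measured by scintillation counting after spotting on P30 filtermat and phosphoric acid washes. Human Lck reacted 40 min at RT in 50 mM Tris pH 7.5 with 10 mM MgAcetate, [gamma-33P]-ATP, 250 uM Cdc2 peptide, 0.1 mM EGTA and 0.1 mM Na3VO4.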

Compound | IC50 [1] | IC50 (Lck (h))
COc1cc(OC2CCN(C(C)=O)CC2)ccc1-c1cc(-c2ccc3c(c2)CCNC3=O)c(N)nc1F [I-304, 6-(5-(4-((1-acetylpiperidin-4-yl)oxy)-2-methoxyphenyl)-2-amino-6-fluoropyridin-3-yl)-3,4-dihydroisoquinolin-1(2H)-one] | 0.1 to 10 nM | > 1000 nM
COc1cc(-c2cc(-c3ccc4c(c3)CCNC4=O)c(N)nc2F)ccc1OC1CCN(C(C)=O)CC1 [I-305, 6-(5-(4-((1-acetylpiperidin-4-yl)oxy)-3-methoxyphenyl)-2-amino-6-fluoropyridin-3-yl)-3,4-dihydroisoquinolin-1(2H)-one] | 0.1 to 10 nM | > 1000 nM
CC(=O)N1CCC(Oc2ccc(-c3cc(-c4ccc5c(c4)CCNC5=O)c(N)nc3F)c3c2OCO3)CC1 [I-306, 6-(5-(7-((1-acetylpiperidin-4-yl)oxy)benzo[d][1,3]dioxol-4-yl)-2-amino-6-fluoropyridin-3-yl)-3,4-dihydroisoquinolin-1(2H)-one] | 0.1 to 10 nM | > 1000 nM
Nc1nc(F)c(-c2ccc(N3CCN(CC4CC4)CC3)cc2)cc1-c1cc(F)c2c(c1)CCNC2=O [I-307, 6-(2-amino-5-(4-(4-(cyclopropylmethyl)piperazin-1-yl)phenyl)-6-fluoropyridin-3-yl)-8-fluoro-3,4-dihydroisoquinolin-1(2H)-one] | 0.1 to 10 nM | > 1000 nM
Nc1nc(F)c(-c2ccc(C3CCN(CC4CC4)CC3)cc2)cc1-c1cc(F)c2c(c1)CCNC2=O [I-308, 6-(2-amino-5-(4-(1-(cyclopropylmethyl)piperidin-4-yl)phenyl)-6-fluoropyridin-3-yl)-8-fluoro-3,4-dihydroisoquinolin-1(2H)-one] | 0.1 to 10 nM | > 1000 nM
Nc1nc(F)c(-c2ccc(N3CCOCC3)cc2)cc1-c1cc(F)c2c(c1)CCNC2=O [I-309, 6-(2-amino-6-fluoro-5-(4-morpholinophenyl)pyridin-3-yl)-8-fluoro-3,4-dihydroisoquinolin-1(2H)-one] | 0.1 to 10 nM | > 1000 nM
CC(C)N1CCN(c2ccc(-c3cc(-c4ccc5c(c4)CC(CN(C)C)NC5=O)c(N)nc3F)cc2)CC1 (stereo not drawn) [I-310, 6-(2-amino-6-fluoro-5-(4-(4-isopropylpiperazin-1-yl)phenyl)pyridin-3-yl)-3-((dimethylamino)methyl)-3,4-dihydroisoquinolin-1(2H)-one] | 11 to 100 nM | > 1000 nM
CN(C)CC1Cc2cc(-c3cc(-c4ccc(N5CCOCC5)cc4)c(F)nc3N)ccc2C(=O)N1 (stereo not drawn) [I-311, 6-(2-amino-6-fluoro-5-(4-morpholinophenyl)pyridin-3-yl)-3-((dimethylamino)methyl)-3,4-dihydroisoquinolin-1(2H)-one] | 11 to 100 nM | > 1000 nM
CN(C)CC1Cc2cc(-c3cc(-c4ccc(Cl)cc4)c(F)nc3N)ccc2C(=O)N1 (stereo not drawn) [I-312, 6-(2-amino-5-(4-chlorophenyl)-6-fluoropyridin-3-yl)-3-((dimethylamino)methyl)-3,4-dihydroisoquinolin-1(2H)-one] | 101 to 1000 nM | > 1000 nM
Cc1cc(-c2cc(-c3cc4c(cc3F)C(=O)NCC4)c(N)nc2F)ccn1 [I-313, 6-(6-amino-2-fluoro-2′-methyl-[3,4′-bipyridin]-5-yl)-7-fluoro-3,4-dihydroisoquinolin-1(2H)-one] | 11 to 100 nM | > 1000 nM
Nc1nc(F)c(-c2ccnc(OCC3CC3)c2)cc1-c1cc2c(cc1F)C(=O)NCC2 [I-314, 6-(6-amino-2′-(cyclopropylmethoxy)-2-fluoro-[3,4′-bipyridin]-5-yl)-7-fluoro-3,4-dihydroisoquinolin-1(2H)-one] | 101 to 1000 nM | > 1000 nM
Nc1nc(F)c(-c2cccc(OCC3CC3)c2)cc1-c1cc2c(cc1F)C(=O)NCC2 [I-315, 6-(2-amino-5-(3-(cyclopropylmethoxy)phenyl)-6-fluoropyridin-3-yl)-7-fluoro-3,4-dihydroisoquinolin-1(2H)-one] | 101 to 1000 nM | > 1000 nM
Nc1nc(F)c(-c2ccc(OCC3CC3)cc2)cc1-c1cc2c(cc1F)C(=O)NCC2 [I-316, 6-(2-amino-5-(4-(cyclopropylmethoxy)phenyl)-6-fluoropyridin-3-yl)-7-fluoro-3,4-dihydroisoquinolin-1(2H)-one] | 11 to 100 nM | > 1000 nM
Nc1nc(F)c(-c2ccc(OC3CN(C(=O)CC4CC4)C3)cc2)cc1-c1ccc2c(c1)CCNC2=O [I-317, 6-(2-amino-5-(4-((1-(2-cyclopropylacetyl)azetidin-3-yl)oxy)phenyl)-6-fluoropyridin-3-yl)-3,4-dihydroisoquinolin-1(2H)-one] | 0.1 to 10 nM | > 1000 nM
Nc1nc(F)c(-c2ccc(OC3CN(C4COC4)C3)cc2)cc1-c1ccc2c(c1)CCNC2=O [I-318, 6-(2-amino-6-fluoro-5-(4-((1-(oxetan-3-yl)azetidin-3-yl)oxy)phenyl)pyridin-3-yl)-3,4-dihydroisoquinolin-1(2H)-one] | 11 to 100 nM | > 1000 nM
C[C@@H]1CN(c2ccc(-c3cc(-c4ccc5c(c4)CCNC5=O)c(N)nc3F)cc2)C[C@H](C)N1 [I-319, 6-(2-amino-5-(4-((3R,5S)-3,5-dimethylpiperazin-1-yl)phenyl)-6-fluoropyridin-3-yl)-3,4-dihydroisoquinolin-1(2H)-one] | 0.1 to 10 nM | > 1000 nM
Nc1nc(F)c(-c2ccc([C@]34C[C@H]3CN(CC3CC3)C4)cc2)cc1-c1cc(F)c2c(c1)CCNC2=O [I-320, 6-(2-amino-5-(4-((1S,5R)-3-(cyclopropylmethyl)-3-azabicyclo[3.1.0]hexan-1-yl)phenyl)-6-fluoropyridin-3-yl)-8-fluoro-3,4-dihydroisoquinolin-1(2H)-one formate] | 0.1 to 10 nM | 101 to 1000 nM
Nc1nc(F)c(-c2ccc(OC3CN(CC4CC4)C3)cc2)cc1-c1ccc2c(c1)CCNC2=O [I-321, 6-(2-amino-5-(4-((1-(cyclopropylmethyl)azetidin-3-yl)oxy)phenyl)-6-fluoropyridin-3-yl)-3,4-dihydroisoquinolin-1(2H)-one] | 0.1 to 10 nM | > 1000 nM
Nc1nc(F)c(-c2ccc(OC3CCN(CC4CC4)CC3)cc2)cc1-c1ccc2c(c1)CCNC2=O [I-322, 6-(2-amino-5-(4-((1-(cyclopropylmethyl)piperidin-4-yl)oxy)phenyl)-6-fluoropyridin-3-yl)-3,4-dihydroisoquinolin-1(2H)-one] | 0.1 to 10 nM | > 1000 nM
Nc1nc(F)c(-c2ccc(OC3CCN(C(=O)CC4CC4)CC3)cc2)cc1-c1cc2c(cc1F)C(=O)NCC2 [I-323, 6-(2-amino-5-(4-((1-(2-cyclopropylacetyl)piperidin-4-yl)oxy)phenyl)-6-fluoropyridin-3-yl)-7-fluoro-3,4-dihydroisoquinolin-1(2H)-one] | 0.1 to 10 nM | > 1000 nM
Nc1nc(F)c(-c2ccc(OC3CCN(CC4CC4)CC3)cc2)cc1-c1cc2c(cc1F)C(=O)NCC2 [I-324, 6-(2-amino-5-(4-((1-(cyclopropylmethyl)piperidin-4-yl)oxy)phenyl)-6-fluoropyridin-3-yl)-7-fluoro-3,4-dihydroisoquinolin-1(2H)-one] | 0.1 to 10 nM | > 1000 nM
Nc1nc(F)c(-c2ccc(OC3CCN(C4COC4)CC3)cc2)cc1-c1cc2c(cc1F)C(=O)NCC2 [I-325, 6-(2-amino-6-fluoro-5-(4-((1-(oxetan-3-yl)piperidin-4-yl)oxy)phenyl)pyridin-3-yl)-7-fluoro-3,4-dihydroisoquinolin-1(2H)-one] | 11 to 100 nM | > 1000 nM
CC(=O)N1CC(Oc2ccc(-c3cc(-c4ccc5c(c4)CCNC5=O)c(N)nc3F)cc2)C1 [I-326, 6-(5-(4-((1-acetylazetidin-3-yl)oxy)phenyl)-2-amino-6-fluoropyridin-3-yl)-3,4-dihydroisoquinolin-1(2H)-one] | 0.1 to 10 nM | > 1000 nM
CC(=O)N1CCC(Oc2ccc(-c3cc(-c4cc5c(cc4F)C(=O)NCC5)c(N)nc3F)cc2)CC1 [I-327, 6-(5-(4-((1-acetylpiperidin-4-yl)oxy)phenyl)-2-amino-6-fluoropyridin-3-yl)-7-fluoro-3,4-dihydroisoquinolin-1(2H)-one] | 0.1 to 10 nM | > 1000 nM
CC(C)N1CCc2cc(-c3cc(-c4ccc5c(c4)CCNC5=O)c(N)nc3F)ccc2C1 [I-328, 6-(2-amino-6-fluoro-5-(2-isopropyl-1,2,3,4-tetrahydroisoquinolin-6-yl)pyridin-3-yl)-3,4-dihydroisoquinolin-1(2H)-one] | 11 to 100 nM | > 1000 nM
COCCN1CCN(Cc2cccc(-c3cc(-c4ccc5c(c4)CCNC5=O)c(N)nc3F)c2)CC1 [I-329, 6-(2-amino-6-fluoro-5-(3-((4-(2-methoxyethyl)piperazin-1-yl)methyl)phenyl)pyridin-3-yl)-3,4-dihydroisoquinolin-1(2H)-one] | 101 to 1000 nM | > 1000 nM
CC(C)N1CCN(Cc2cccc(-c3cc(-c4ccc5c(c4)CCNC5=O)c(N)nc3F)c2)CC1 [I-330, 6-(2-amino-6-fluoro-5-(3-((4-isopropylpiperazin-1-yl)methyl)phenyl)pyridin-3-yl)-3,4-dihydroisoquinolin-1(2H)-one] | 11 to 100 nM | > 1000 nM
